The values that follow come from US20240239765A1, “GLYCINE N-METHYLTRANSFERASE SPECIFIC ENHANCER AND PREPARATION METHOD AND USES THEREOF” (KAOHSIUNG MEDICAL UNIVERSITY, priority 2020, published 2024).

One test relates to Huh7 xenograft tumor. The class given is in vivo. The source says:
(§1) All animal experiments were reviewed and approved by the Institutional Animal Care and Use Committee of Kaohsiung Medical University, and performed in accordance with relevant guidelines. Five to six-week-old male NOD-SCID mice were subcutaneously injected with Huh7 cells (1×10^6) in the right flank. Upon detection of palpable tumor, mice were randomly grouped and treated with 300 mpk, 100 mpk or 25 mpk of LKY4606D or KYT5397 and drug vehicle orally every day for 28 days. For K117, doses of 10 mpk and 25 mpk were used. For Sorafenib, dose of 25 mpk was used. Tumor growth was monitored (every day or three times per week) by measuring the length (L) and the width (W) of the tumor using Vernier caliper. Tumor volume (TV) was calculated by using the formula: volume=(L×W^2)/2. All drugs were dissolved in 0.5% carboxymethyl cellulose sodium salt.

A further test relates to GNMT expression / MYC. The following applies: pathogenesis of liver cancer, known; cited from earlier work.
The test system of another test is DU145. Description: Cell viability, prostate cancer cell line DU145. The class given is cell-based. The following applies: Homo sapiens, DU-145.
For the next test, the system named is MYC protein. Description: MYC protein in Huh7 xenograft tumors (immunoblotting). The class given is in vivo. The following applies: Huh7 xenograft tumors of treated mice. On the procedure: (§2) Cells or xenograft tumors were harvested for lysate preparation by using RIPA buffer containing protease inhibitor cocktail (Roche Molecular Biochemicals) and phosphatase inhibitors (10 mM Na3VO4, 1 mM NaF, 5 mM NaPPi). Protein concentrations were quantified by Bio-Rad Protein Assay (Bio-Rad) and immunoblotting was carried out as previous description (Yen et al., 2012). Anti-MYC (D84C12, Cell Signaling Technology), anti-GNMT (YMAC-Bioteck) and anti-β-actin (AC-15, Sigma-Aldrich) antibodies were used according to the descriptions in manufacturer's instructions.
as §1, with “All drugs were dissolved in 0.5% carboxymethyl cellulose sodium salt.” left out

For test [1], the system named is −1812/+14 GNMT promoter-luciferase reporter cell line H7GPL. Description: GNMT induction capacity assay (GNMT promoter-luciferase reporter, H7GPL cells). The following applies: for Relative Luciferase Activity (induction capacity): H7GPL cells. The class given is cell-based, Human. On the procedure: A −1812/+14 GNMT promoter-luciferase reporter cell line H7GPL was constructed. For the primary analysis, H7GPL cells seeded in 96-well plates were treated with individual drugs of 10 μM for 24 hours and then were lysed for the luciferase activity assay using Luciferase Assay System (Promega, Madison, WI, USA). Then, the secondary analysis was performed using the compounds with different doses. The same confirmed hits were used for cytotoxicity by using alamarBlue® reagent (AbD serotec, Oxford, UK). The cytotoxicity was measured according to the manufacturer's recommendation. Top hits were used for further studies.

The next test relates to PANC1. As to the kind of experiment: Cell viability, pancreatic cancer cell line PANC1. The following applies: Homo sapiens, PANC-1; PANC1, pancreas. The class given is cell-based. On the procedure: (§3) Human liver cancer cell lines (Huh7 and HepG2), human pancreatic cancer cell line (PANC1) and prostate cancer cell line (PC3) were cultured in Dulbecco's modified Eagle's medium (DMEM) supplemented with 10% fetal bovine serum (FBS) (HyClone, Logan, UT, USA), L-glutamine (2 mM), streptomycin (100 μg/mL), penicillin (100 U/mL) and nonessential amino acids (0.1 mM). Human pancreatic cancer cell line BxPC3 was cultured in the medium of Roswell Park Memorial Institute (RPMI) 1640 with the same supplements as in DMEM. All cell lines were maintained at 37 °C in a humidified CO2 incubator. H7GPL stable cells established by lentiviral-system was grown in DMEM supplemented with 1 μg/mL puromycin. The sorafenib were purchased from Sigma-Aldrich (St Louis, MO, USA).
(§4) Huh7, HepG2, PANC1, PC3, and BxPC3 cells were seeded in 96-well plates for 24 hours and exposed to the drugs with various concentrations. AlamarBlue® was added in to the cells and further incubated for 4 hours to assess the cytotoxic effect of the tested drugs. Blank wells (without cells) containing the same amount of test substances were used for background subtraction, and the relative number of viable cells were represented as the percentage of the mean of the relative solvent controls. AlamarBlue® assay (AbD Serotec, Oxford, UK) was used to assess cell viability according to the manufacturer's instructions.

The next test has as its system GNMT protein. As to the kind of experiment: Endogenous GNMT protein in Huh7 cells (immunoblotting). The class given is cell-based, Human. On the procedure: as §2
The test system of another test is p27 mRNA. Description: p27 mRNA expression in Huh7 cells (qRT-PCR). The class given is cell-based, Human. The following applies: after K117 treatment. On the procedure:
(§5) RNA was isolated by using Trizol reagent (Life Technologies) according to the manufacturer's protocol. Cellular RNA was reverse transcribed into complementary DNA using a SuperScript II RNase H-Reverse Transcriptase Kit (Life Technologies). PCR reactions were carried out using a Super Script II Reverse Transcriptase Kit (Invitrogen Inc., Carlsbad, CA, USA) on an Applied Biosystems Step-One-plus real-time PCR system (Applied Biosystems, Foster City, CA, USA). The mRNA level of TATA-box binding protein (TBP) was used as an internal control. The primer pairs used for qRT-PCR were: • TBP forward: SEQ ID NO: 1, • reverse: SEQ ID NO: 2, • MYC forward: SEQ ID NO: 3, • reverse: SEQ ID NO: 4, • p21 forward: SEQ ID NO: 5, • reverse: SEQ ID NO: 6, • p27 forward: SEQ ID NO: 7, • reverse: SEQ ID NO: 8, • GNMT forward: SEQ ID NO: 9, and • reverse: SEQ ID NO: 10.

A further test has as its system GNMT mRNA. Description: Endogenous GNMT mRNA in Huh7 cells (qRT-PCR). The class given is cell-based, Human. On the procedure: as §5
Another test concerns PC3. Description: Cell viability, prostate cancer cell line PC3. The class given is cell-based. The following applies: Homo sapiens, PC-3. On the procedure:
as §3, §4

For the next test, the system named is MYC mRNA. As to the kind of experiment: MYC mRNA expression in Huh7 cells (qRT-PCR). The class given is cell-based, Human. On the procedure: as §5
A further test concerns BxPC3. Description: Cell viability, pancreatic cancer cell line BxPC3. The class given is cell-based. The note with it: Homo sapiens, BXPC-3; BxPC3, pancreas. On the procedure: as §3, §4
A further test relates to Huh7 and HepG2 cells. As to the kind of experiment: Colony formation assay. The class given is cell-based, Human.
Test [2] concerns liver cancer cell lines (Huh7, Hep3B, HepG2). As to the kind of experiment: Cell proliferation in liver cancer cell lines. The class given is cell-based, Human. On the procedure:
as §4

In the next test the test system is p21 mRNA. As to the kind of experiment: p21 mRNA expression in Huh7 cells (qRT-PCR). The following applies: after K117 treatment. The class given is cell-based, Human. On the procedure: as §5

Consider `CNC(=O)c1cc(Oc2ccc(NC(=O)Nc3ccc(Cl)c(C(F)(F)F)c3)cc2)ccn1` [Sorafenib, sorafenib, reference compound], for which the “Tumor growth versus solvent control” value in the test with Huh7 xenograft tumor (oral, K78 25, 100, 300 mpk, sorafenib comparison control) is “most significant difference”.

Turning to `O=C(OC[C@H]1O[C@@H](OC(=O)c2cc(O)c(O)c(O)c2)[C@H](OC(=O)c2cc(O)c(O)c(O)c2)[C@@H](OC(=O)c2cc(O)c(O)c(O)c2)[C@@H]1OC(=O)c1cc(O)c(O)c(O)c1)c1cc(O)c(O)c(O)c1` [PGG, 1,2,3,4,6-penta-O-galloyl-Beta-D-glucopyranoside], the “GNMT expression / MYC regulation” value in the test on GNMT expression / MYC is on record as “enhanced GNMT expression through MYC downregulation”.

Turning to `C/C(=N\NC(=O)c1cccnc1N)c1ccccn1` [K117, N′-(1-(pyridin-2-yl)ethylidene)-2-carbohydrazide], the IC50 with DU145 is 40.8 µM; in the test with PANC1, 2.2 µM; in the test with PC3, 15.3 µM; in the test with BxPC3 it was 1.2 µM. In addition, the “MYC protein expression in xenograft tumors” value in the test with MYC protein is “reduced”. Moreover, the “Relative Luciferase Activity (induction capacity)” value in test [1] (5.0 μM) was found to be 6.52 ± 0.12; in test [1] (10 μM) it was 10.36 ± 0.35. Moreover, the “Induction of GNMT expression compared with K78” value in test [1] (SAR study) is reported as “more effective than K78”. Moreover, the “Induction of luciferase activity / GNMT promoter activity” value in test [1] (dose response (FIG. 2B, 4B)) is reported as “induced GNMT promoter activity in a dose-dependent manner”. For the same compound, in the test with GNMT protein, the “Endogenous GNMT expression at protein level” value is listed as “induced”. In the test with p27 mRNA, the “p27 mRNA expression” value is “increased”. Further, the “Endogenous GNMT expression at mRNA level” value in the test on GNMT mRNA is “induced”. Also, the “Tumor growth versus control group” value in the test with Huh7 xenograft tumor (K117 10 mpk and 25 mpk) is on record as “significant tumor growth reduction”. Further, in the test with Huh7 xenograft tumor (K117 10 mpk vs Sorafenib 25 mpk), the “Tumor growth effect compared with Sorafenib” value is reported as “same effect as Sorafenib 25 mpk”. In addition, in the test on MYC mRNA, the “MYC mRNA expression” value is given as “suppressed c-Myc mRNA expression dose-dependently”. Besides, the Colony formation result with Huh7 and HepG2 cells was “reduced the colony formation of Huh7 and HepG2 cells in a dose-dependent manner”. Also, in test [2], the “Proliferation of liver cancer cells” value is on record as “inhibited proliferation of all tested liver cancer cells in a dose-dependent manner”. Also, the “p21 mRNA expression” value in the test on p21 mRNA is on record as “increased”.
